Consider 47 compounds from patent US8143259B2, “Cold menthol receptor antagonists” (Janssen Pharmaceutica, NV, priority 2008, dated 2012).

The experiment addresses T1, canine TRPM8 (Canis lupus familiaris, UniProt Q1A7N1).
T1 construct: expressed in transfected cells
Description: In Vitro Canine TRPM8 Functional Assay (Ca2+ fluorescence, icilin activation). It counts as cell-based. To be noted: for inhibition at 0.2 µM: HEK293, 0.2 μM compound; for inhibition at 0.2 µM / % Inh @ 0.2 μM: canine TRPM8 HEK293, icilin; for IC50: HEK293 cells stably expressing canine TRPM8, icilin activation, Ca2+ fluorescence; for % Inh @ 0.2 μM: 0.2 μM compound. Summed up: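 HEK293 cells stably expressing canine TRPM8, loaded with Calcium 3 dye; compounds added 5 min before icilin at a concentration giving ~80% maximal response. Peak icilin-evoked Ca2+ fluorescence, basal-subtracted and normalised to maximal response, fitted by sigmoidal nonlinear regression; quadruplicate wells.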

Values joined by “and” are separate entries in the source; they are usually repeats but may differ in a detail not shown here. Equal values may be shown once.

T1 sequence (Q1A7N1 1-1104): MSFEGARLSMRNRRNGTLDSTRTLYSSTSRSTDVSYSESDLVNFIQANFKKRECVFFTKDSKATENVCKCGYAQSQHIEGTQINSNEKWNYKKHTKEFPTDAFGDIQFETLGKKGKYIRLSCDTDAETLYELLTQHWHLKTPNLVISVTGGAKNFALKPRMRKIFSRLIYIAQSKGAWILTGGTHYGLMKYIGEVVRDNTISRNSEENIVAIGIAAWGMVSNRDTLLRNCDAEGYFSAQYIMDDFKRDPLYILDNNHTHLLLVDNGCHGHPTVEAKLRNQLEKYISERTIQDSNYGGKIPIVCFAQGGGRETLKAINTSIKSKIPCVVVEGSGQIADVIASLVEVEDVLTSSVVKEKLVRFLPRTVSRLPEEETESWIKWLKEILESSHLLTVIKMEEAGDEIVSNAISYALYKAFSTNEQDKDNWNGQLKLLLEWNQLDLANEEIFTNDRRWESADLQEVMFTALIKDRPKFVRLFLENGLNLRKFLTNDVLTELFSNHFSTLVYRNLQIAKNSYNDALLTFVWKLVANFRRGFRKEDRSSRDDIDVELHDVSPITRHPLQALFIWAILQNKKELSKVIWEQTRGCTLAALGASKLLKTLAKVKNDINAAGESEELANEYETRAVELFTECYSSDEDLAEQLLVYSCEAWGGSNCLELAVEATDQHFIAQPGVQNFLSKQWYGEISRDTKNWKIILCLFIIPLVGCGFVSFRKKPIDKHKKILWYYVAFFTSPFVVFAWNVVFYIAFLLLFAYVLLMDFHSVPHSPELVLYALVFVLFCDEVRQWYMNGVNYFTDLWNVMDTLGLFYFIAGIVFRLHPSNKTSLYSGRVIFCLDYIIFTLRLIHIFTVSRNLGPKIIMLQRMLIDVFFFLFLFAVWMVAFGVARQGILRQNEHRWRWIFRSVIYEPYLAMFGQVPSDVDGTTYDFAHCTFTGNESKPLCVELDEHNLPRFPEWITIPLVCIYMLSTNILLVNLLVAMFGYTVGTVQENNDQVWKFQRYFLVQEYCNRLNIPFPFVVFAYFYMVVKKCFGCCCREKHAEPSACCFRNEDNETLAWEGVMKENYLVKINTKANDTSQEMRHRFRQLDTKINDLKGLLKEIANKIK

Take `O=C(C(Oc1ccccc1F)c1ccc(C(F)(F)F)cc1)N1CCCC1c1ccccc1F` (centres unmarked) [Cpd 263, 2-(2-Fluoro-phenoxy)-1-[2-(2-fluoro-phenyl)-pyrrolidin-1-yl]-2-(4-trifluoromethyl-phenyl)-ethanone]: the inhibition at 0.2 µM is 84% and it took 110 nM to reach half-maximal inhibition (IC50). In the same order, the values of `O=C(C(Nc1ccccc1)c1cnc2ccccc2c1)N1CCCC1c1ccccc1F` (centres unmarked) [Cpd 264] are 93% and 43 nM.

As for `Nc1ccc(C2CCCN2C(=O)C(Nc2ccccc2F)c2ccc(C(F)(F)F)cc2)cc1` (centres unmarked) [Cpd 266], the inhibition at 0.2 µM was 100% and inhibition was half-maximal at 2 nM (IC50).

As for `O=C(C(Cc1c(F)cccc1F)c1ccc(C(F)(F)F)cc1)N1CCCC1c1ccccc1Cl` (centres unmarked) [Cpd 267], the inhibition at 0.2 µM was 98% and inhibition was half-maximal at 30 nM (IC50). As for `CN(C)c1ccc(C2CCCN2C(=O)C(Nc2ccccc2F)c2ccc(Br)cc2)cc1` (centres unmarked) [Cpd 271], the inhibition at 0.2 µM worked out at 90% and inhibition was half-maximal at 89 nM (IC50).

Regarding `CN(C)c1ccc(C2CCCN2C(=O)C(Nc2ccccc2F)c2ccc(Cl)cc2)cc1` (centres unmarked) [Cpd 272], the inhibition at 0.2 µM was 96% and the 50% inhibitory concentration (IC50) is 110 nM. `CN(C)c1ccc(C2CCCN2C(=O)C(Nc2c(F)cccc2F)c2ccc(Cl)cc2)cc1` (centres unmarked) [Cpd 273]: the inhibition at 0.2 µM is 98% and the midpoint of inhibition, the IC50, lay at 104 nM. Consider `O=C(C(Nc1ccccc1F)c1cnc2ccccc2c1)N1CCCC1c1ccccc1F` (centres unmarked) [Cpd 281], for which the inhibition at 0.2 µM amounted to 89% and the IC50 was found to be 94 nM.

Turning to `O=C(C(Nc1ccccc1F)c1ccc2cccnc2c1)N1CCCC1c1ccccc1F` (centres unmarked) [Cpd 284], the “% Inh @ 0.2 μM” value is given as 95%; the inhibition at 0.2 µM amounted to 92%; the 50% inhibitory concentration (IC50) is 20 nM and 26 nM. For the compound `O=C(C(Nc1ccccc1F)c1ccc(-c2cccnc2)cc1)N1CCCC1c1ccccc1F` (centres unmarked) [Cpd 285, 2-(2-Fluoro-phenylamino)-1-[2-(2-fluoro-phenyl)-pyrrolidin-1-yl]-2-(4-pyridin-3-yl-phenyl)-ethanone], the “% Inh @ 0.2 μM” value is 96%; the inhibition at 0.2 µM came to 91%; the IC50 was 12 nM and 15 nM.

With `CCOC(=O)c1ccc(C(Nc2ccccc2F)C(=O)N2CCCC2c2ccccc2F)cc1` (centres unmarked) [Cpd 287], the inhibition at 0.2 µM was 92% and the IC50 came to 27 nM. Consider `O=C(C(Nc1ccccc1F)c1ccc(-c2cncnc2)cc1)N1CCCC1c1ccccc1F` (centres unmarked) [Cpd 288], for which the “% Inh @ 0.2 μM” value is recorded as 95%; the inhibition at 0.2 µM was found to be 91%; the IC50 was 9 nM and 10 nM.

Consider `Nc1ccc(C2CCCN2C(=O)C(Nc2ccccc2F)c2ccc(Cl)cc2)cc1` (centres unmarked) [Cpd 290], for which the inhibition at 0.2 µM was found to be 98% and the IC50 turned out to be 2 nM.

On to `O=C(C(c1ccc(C(F)(F)F)cc1)N1CCCc2ccccc21)N1CCCC1c1ccccc1` (centres unmarked) [Cpd 291], for which the inhibition at 0.2 µM worked out at 72% and the concentration for half-maximal inhibition (IC50) stood at 422 nM. As to `O=C(C(Nc1ccccc1F)c1ccc(N2CCOCC2)cc1)N1CCCC1c1ccccc1F` (centres unmarked) [Cpd 293], the inhibition at 0.2 µM was determined as 86% and the IC50 is 11 nM.

As to `O=C(C(Nc1ccccc1F)c1ccc(-c2ccncc2)cc1)N1CCCC1c1ccccc1F` (centres unmarked) [Cpd 294], the “% Inh @ 0.2 μM” value is listed as 102%; the inhibition at 0.2 µM came out at 92%; the half-maximal inhibitory concentration (IC50) is 22 nM and 27 nM. For the compound `O=C(O)c1ccc(-c2ccc(C(Nc3ccccc3F)C(=O)N3CCCC3c3ccccc3F)cc2)cc1` (centres unmarked) [Cpd 295, 4′-{1-(2-Fluoro-phenylamino)-2-[2-(2-fluoro-phenyl)-pyrrolidin-1-yl]-2-oxo-ethyl}-biphenyl-4-carboxylic acid], the inhibition at 0.2 µM stood at 90% and half-maximal inhibition (IC50) was put at 47 nM. Regarding `CC(C)(C)OC(=O)N1CC=C(c2ccc(C(Nc3ccccc3F)C(=O)N3CCCC3c3ccccc3F)cc2)CC1` (centres unmarked) [Cpd 299, 4-(4-{1-(2-Fluoro-phenylamino)-2-[2-(2-fluoro-phenyl)-pyrrolidin-1-yl]-2-oxo-ethyl}-phenyl)-3,6-dihydro-2H-pyridine-1-carboxylic acid tert-butyl ester], the inhibition at 0.2 µM was determined as 99% and the IC50 turned out to be 65 nM.

`O=C(C(Nc1ccccc1F)c1ccc(-n2ccnc2)cc1)N1CCCC1c1ccccc1F` (centres unmarked) [Cpd 301]: the inhibition at 0.2 µM worked out at 99% and half-maximal inhibition (IC50) required 35 nM. Regarding `O=C(C(Nc1ccccc1F)c1ccc(C2=CCNCC2)cc1)N1CCCC1c1ccccc1F` (centres unmarked) [Cpd 302, 2-(2-Fluoro-phenylamino)-1-[2-(2-fluoro-phenyl)-pyrrolidin-1-yl]-2-[4-(1,2,3,6-tetrahydro-pyridin-4-yl)-phenyl]-ethanone], the inhibition at 0.2 µM was 57%. Turning to `Nc1cccc(C2CCCN2C(=O)C(Nc2ccccc2F)c2ccc(C(F)(F)F)cc2)c1` (centres unmarked) [Cpd 305], the inhibition at 0.2 µM was determined as 101% and the half-maximal inhibitory concentration (IC50) turned out to be 2 nM. Take `COC(=O)c1cccc(NC(C(=O)N2CCCC2c2ccccc2F)c2ccc3c(c2)CCO3)c1` (centres unmarked) [Cpd 311]: the inhibition at 0.2 µM was found to be 99% and the concentration for half-maximal inhibition (IC50) amounted to 51 nM.

For `CC(=O)Nc1cccc(C2CCCN2C(=O)C(Nc2ccccc2F)c2ccc(C(F)(F)F)cc2)c1` (centres unmarked) [Cpd 316], the inhibition at 0.2 µM was determined as 102% and the half-inhibitory concentration (IC50) is 26 nM. Regarding `CC(=O)Nc1ccc(C2CCCN2C(=O)C(Nc2ccccc2F)c2ccc(C(F)(F)F)cc2)cc1` (centres unmarked) [Cpd 317], the inhibition at 0.2 µM turned out to be 102% and 3 nM corresponded to half-maximal inhibition (IC50). For the compound `CC(=O)N(c1ccccc1F)[C@H](C(=O)N1CCC[C@H]1c1ccccc1F)c1ccc(C(F)(F)F)cc1` [Cpd 318, N-(2-Fluoro-phenyl)-N-[2-[(2S)-2-(2-fluoro-phenyl)-pyrrolidin-1-yl]-2-oxo-(1S)-1-(4-trifluoromethyl-phenyl)-ethyl]-acetamide], the inhibition at 0.2 µM was 47%.

Regarding `O=C(C(Nc1ccccc1F)c1cc2ccccc2s1)N1CCCC1c1cccnc1` (centres unmarked) [Cpd 319], the inhibition at 0.2 µM turned out to be 94% and the IC50 amounted to 25 nM. Consider `O=C(C(Nc1ccccc1F)c1cc2ccccc2s1)N1CCCC1c1ccccn1` (centres unmarked) [Cpd 321], for which the inhibition at 0.2 µM was found to be 94% and the IC50 amounted to 8 nM. In the case of `COC(=O)c1cccc(C2CCCN2C(=O)C(Nc2ccccc2F)c2cc3ccccc3s2)c1` (centres unmarked) [Cpd 324, 3-{1-[2-Benzo[b]thiophen-2-yl-2-(2-fluoro-phenylamino)-acetyl]-pyrrolidin-2-yl}-benzoic acid methyl ester], the inhibition at 0.2 µM came to 101% and the IC50 was 28 nM. `COC(=O)c1ccc(C2CCCN2C(=O)C(Nc2ccccc2F)c2cc3ccccc3s2)cc1` (centres unmarked) [Cpd 325]: the inhibition at 0.2 µM worked out at 101% and 62 nM corresponded to half-maximal inhibition (IC50). In the case of `O=C(O)c1cccc(C2CCCN2C(=O)C(Nc2ccccc2F)c2cc3ccccc3s2)c1` (centres unmarked) [Cpd 326, 3-{1-[2-Benzo[b]thiophen-2-yl-2-(2-fluoro-phenylamino)-acetyl]-pyrrolidin-2-yl}-benzoic acid], the inhibition at 0.2 µM amounted to 97% and the half-inhibitory concentration (IC50) was found to be 78 nM.

Consider `O=C(C(Nc1ccccc1F)c1cc2cccnc2s1)N1CCCC1c1ccccc1F` (centres unmarked) [Cpd 328], for which the inhibition at 0.2 µM worked out at 101% and the IC50 came to 8 nM. Take `O=C(C(Nc1ccccc1F)c1ccc(-n2ccnc2)cc1)N1CCCC1c1ccccc1Cl` (centres unmarked) [Cpd 342]: the inhibition at 0.2 µM stood at 100% and the 50% inhibitory concentration (IC50) worked out at 28 nM. Turning to `O=C(C(Nc1ccccc1F)c1ccc(-c2cccnc2)cc1)N1CCCC1c1ccccc1Cl` (centres unmarked) [Cpd 343], the inhibition at 0.2 µM was 101% and the IC50 stood at 17 nM. For `O=C(C(Nc1ccccc1F)c1ccc(C(F)(F)F)cc1)N1CCCC1c1cncc(Br)c1` (centres unmarked) [Cpd 344] the same measures were 98% and 44 nM.

Turning to `O=C(O)c1ccc(-c2ccc(C(Nc3ccccc3F)C(=O)N3CCCC3c3ccccc3Cl)cc2)cc1` (centres unmarked) [Cpd 350], the inhibition at 0.2 µM came to 99% and the IC50 amounted to 42 nM. Regarding `COC(=O)c1ccc(C2CCCN2C(=O)C(Nc2ccccc2F)c2ccc3c(c2)CCO3)cc1` (centres unmarked) [Cpd 351], the inhibition at 0.2 µM stood at 83% and it took 92 nM to reach half-maximal inhibition (IC50). As to `COC(=O)c1ccc(C2CCCN2C(=O)C(Nc2ccccc2F)c2ccc(-c3ccccn3)cc2)cc1` (centres unmarked) [Cpd 352], the inhibition at 0.2 µM came to 88% and inhibition was half-maximal at 115 nM (IC50). Consider `O=C(C(Nc1ccccc1F)c1ccc(-c2ccc(-c3nnn[nH]3)cc2)cc1)N1CCC[C@H]1c1ccccc1F` (stereo partly drawn) [Cpd 354, 2-(2-Fluoro-phenylamino)-1-[(2S)-2-(2-fluoro-phenyl)-pyrrolidin-1-yl]-2-[4′-(1H-tetrazol-5-yl)-biphenyl-4-yl]-ethanone], for which the inhibition at 0.2 µM came out at 53%. For `O=C(C(Nc1ccccc1F)c1ccc(N2CCOCC2)nc1)N1CCCC1c1ccccc1F` (centres unmarked) [Cpd 359], the inhibition at 0.2 µM is 100% and the IC50 was found to be 7 nM. Consider `O=C(C(Nc1c(F)cccc1F)c1cc2ccccc2s1)N1CCCC1c1ccccc1F` (centres unmarked) [Cpd 361], for which the inhibition at 0.2 µM amounted to 96% and it took 8 nM to reach half-maximal inhibition (IC50). As to `O=C(C(c1ccc(C(F)(F)F)cc1)N1CCCc2ccccc21)N1Cc2ccccc2C1` (centres unmarked) [Cpd 363], the inhibition at 0.2 µM was found to be 72% and the half-maximal inhibitory concentration (IC50) came to 134 nM. For `O=C(C(Nc1ccccc1F)c1ccc(Cl)cc1)N1CCCc2ccccc21` (centres unmarked) [Cpd 364], the inhibition at 0.2 µM worked out at 91% and the 50% inhibitory concentration (IC50) was 36 nM. In the case of `O=C(C(Nc1ccccc1F)c1ccc(Br)cc1)N1CCCc2ccccc21` (centres unmarked) [Cpd 365], the inhibition at 0.2 µM amounted to 94% and half-maximal inhibition (IC50) was put at 30 nM. Consider `O=C(C(Nc1c(F)cccc1F)c1ccc(Cl)cc1)N1CCCc2ccccc21` (centres unmarked) [Cpd 366], for which the inhibition at 0.2 µM worked out at 98% and the IC50 worked out at 46 nM. In turn, `O=C(C(Nc1ccccc1F)c1cc2ccccc2s1)N1Cc2cccnc2C1` (centres unmarked) [Cpd 370] came in with an IC50 of 120 nM. `O=C(C(Nc1ccccc1F)c1cnc2ccccc2c1)N1Cc2ccccc2C1` (centres unmarked) [Cpd 371] displayed an IC50 of 100 nM. The same measure, in the same setting: the figure for `O=C(C(Nc1ccccc1F)c1cnc2ccccc2c1)N1CCCC1c1ccccc1Cl` (centres unmarked) [Cpd 373] is 6 nM.
